In brackets after ≈: the same amount, converted by molar mass.
What was measured:
Klebsiella pneumoniae = assay: Gradient Plate in vitro method, MIC; assay type: cell-based; conditions: read-out: Minimum Inhibitory Concentration
Description: (§1) The antibiotic activity of the cephalosporin compounds of the formula I is illustrated by the data presented in Table I for representative compounds. The values in the table are the minimum inhibitory concentrations (MIC) for the test compounds against the indicated microorganisms. The MIC values were obtained in the Gradient Plate in vitro method for determining antibiotic activity.
(§2) Minimum Inhibitory Concentration (mcg./ml.)

Pseudomonas aeruginosa = assay: Gradient Plate in vitro method, MIC; assay type: cell-based; conditions: read-out: Minimum Inhibitory Concentration
Description: as §1, §2

Salmonella heidelberg = assay: Gradient Plate in vitro method, MIC; assay type: cell-based; conditions: Salmonella enterica, read-out: Minimum Inhibitory Concentration
Description: as §1, §2

Shigella sp. = assay: Gradient Plate in vitro method, MIC; assay type: cell-based; conditions: read-out: Minimum Inhibitory Concentration
Description: as §1, §2

Aerobacter aerogenes = assay: Gradient Plate in vitro method, MIC; assay type: cell-based; conditions: Klebsiella aerogenes, read-out: Minimum Inhibitory Concentration
Description: as §1, §2

Serratia marcescens = assay: Gradient Plate in vitro method, MIC; assay type: cell-based; conditions: read-out: Minimum Inhibitory Concentration
Description: (§3) The values in the table are the minimum inhibitory concentrations (MIC) for the test compounds against the indicated microorganisms. The MIC values were obtained in the Gradient Plate in vitro method for determining antibiotic activity.

Escherichia coli [1] = assay: Gradient Plate in vitro method, MIC; assay type: cell-based; conditions: read-out: Minimum Inhibitory Concentration
Description: as §3

X400 = assay: Gradient Plate in vitro method, MIC; assay type: cell-based; conditions: X400, methicillin resistant Staphylococcus, read-out: Minimum Inhibitory Concentration
Description: as §1, §2
(§4) ^1 Test organisms V41, V32 and V84 are penicillin resistant
(§5) Staphyloccus, X400 is a methicillin resistant Staphylococcus.

V84 = assay: Gradient Plate in vitro method, MIC; assay type: cell-based, penicillin resistant Staphyloccus; conditions: V84, penicillin resistant Staphylococcus, read-out: Minimum Inhibitory Concentration
Description: as §1, §2, §4, §5

V41 = assay: Gradient Plate in vitro method, MIC; assay type: cell-based, penicillin resistant Staphyloccus; conditions: V41, penicillin resistant Staphylococcus, read-out: Minimum Inhibitory Concentration
Description: as §1, §2, §4, §5

V32 = assay: Gradient Plate in vitro method, MIC; assay type: cell-based, penicillin resistant Staphyloccus; conditions: V32, penicillin resistant Staphylococcus, read-out: Minimum Inhibitory Concentration
Description: as §1, §2, §4, §5

Streptococcus pyogenes = assay: in vivo effective dose in experimental infections in mice; conditions: ip, S. pyogenes infection in mice
Description: (§6) The in vivo effective dose […] in mg./kg. for representative antibiotics of the formula I has been determined in experimental infections in mice. Table II lists the ED50 dose vs. Streptococcus pyogenes and Escherichia coli infections. In the table, the antibiotics are identified with the R", R', and R1 -R3 terms of Formula I. |Test Compound ED50 (mg/kg × 2) i.p.

Escherichia coli [2] = assay: as above; conditions: ip, E. coli infection in mice
Description: as §6

Staphylococcus aureus = assay: standard gear agar dilution method, MIC; assay type: cell-based
Description: In the standard gear agar dilution method, the MIC values for the above test compounds A through E against Staphylococcus aureus were as follows: A, 2; B, 1; C, 0.5; D, 2; and E, 0.5 mcg./m1.

| Compound | MIC (Klebsiella pneumoniae) | MIC (Pseudomonas aeruginosa) | MIC (Salmonella heidelberg) | MIC (Shigella sp.) | MIC (Aerobacter aerogenes) | MIC (Serratia marcescens) | MIC (Escherichia coli [1]) | MIC (X400) | MIC (V84) | MIC (V41) | MIC (V32) | ED50 (Streptococcus pyogenes) | ED50 (Escherichia coli [2]) | MIC (Staphylococcus aureus) |
| --- | --- | --- | --- | --- | --- | --- | --- | --- | --- | --- | --- | --- | --- | --- |
| CNC(=O)N(C)C(=O)NC(C(=O)NC1C(=O)N2C(C(=O)O)=C(CSc3nnnn3C)CSC12)c1cccs1 (stereo not drawn) [Test Compound K, 7-[α-(3-methylcarbamoyl-3-methyl-1-ureido)-α-(2-thienyl)acetamido]-3-(1-methyl-1H-tetrazole-5-ylthiomethyl)-3-cephem-4-carboxylic acid] | 0.9 µg/mL (≈ 1.55 µM) | 21.5 µg/mL (≈ 37 µM) | 10 µg/mL (≈ 17.2 µM) | 1 µg/mL (≈ 1.72 µM) | 1 µg/mL (≈ 1.72 µM) | 19.5 µg/mL (≈ 33.5 µM) | 2.5 µg/mL (≈ 4.3 µM) | > 20 µg/mL | 3 µg/mL (≈ 5.16 µM) | 3 µg/mL (≈ 5.16 µM) | 3 µg/mL (≈ 5.16 µM) | – | – | – |
| Cn1nnnc1SCC1=C(C(=O)O)N2C(=O)C(NC(=O)C(NC(=O)NC(N)=O)c3ccccc3)C2SC1 (stereo not drawn) [Test Compound H] | 35 µg/mL (≈ 63.9 µM) | 60 µg/mL (≈ 110 µM) | 12 µg/mL (≈ 21.9 µM) | 9.5 µg/mL (≈ 17.3 µM) | 15 µg/mL (≈ 27.4 µM) | > 200 µg/mL | 16 µg/mL (≈ 29.2 µM) | > 20 µg/mL | 1 µg/mL (≈ 1.83 µM) | 2.5 µg/mL (≈ 4.57 µM) | 4 µg/mL (≈ 7.3 µM) | 0.7 mg/kg | < 72 mg/kg | – |
| CNC(=O)N(C)C(=O)NC(C(=O)NC1C(=O)N2C(C(=O)O)=C(COC(C)=O)CSC12)c1ccccc1 (stereo not drawn) [Test Compound C, 7-[α-(3-methylcarbamoyl-3-methyl-1-ureido)-α-phenylacetamido]-3-acetoxymethyl-3-cephem-4-carboxylic acid] | 14 µg/mL (≈ 26.9 µM) | 80 µg/mL (≈ 154 µM) | 13 µg/mL (≈ 25 µM) | 7 µg/mL (≈ 13.5 µM) | 14 µg/mL (≈ 26.9 µM) | 80 µg/mL (≈ 154 µM) | 11 µg/mL (≈ 21.2 µM) | > 20 µg/mL | 0.5 µg/mL (≈ 0.962 µM) | 1 µg/mL (≈ 1.92 µM) | 1 µg/mL (≈ 1.92 µM) | < 7.2 mg/kg | < 7.2 mg/kg | 0.5 µg/mL (≈ 0.962 µM) |
| CNC(=O)N(C)C(=O)NC(C(=O)NC1C(=O)N2C(C(=O)O)=C(CSc3nnnn3C)CSC12)c1ccccc1 (stereo not drawn) [Test Compound F, 7-[α-(3-methylcarbamoyl-3-methyl-1-ureido)-α-phenylacetamido]-3-(1-methyl-1H-tetrazole-5-ylthiomethyl)-3-cephem-4-carboxylic acid] | 1 µg/mL (≈ 1.74 µM) | 22 µg/mL (≈ 38.2 µM) | 3 µg/mL (≈ 5.21 µM) | 3 µg/mL (≈ 5.21 µM) | 3 µg/mL (≈ 5.21 µM) | 22 µg/mL (≈ 38.2 µM) | 4 µg/mL (≈ 6.95 µM) | > 20 µg/mL | 4 µg/mL (≈ 6.95 µM) | 5 µg/mL (≈ 8.69 µM) | 5 µg/mL (≈ 8.69 µM) | – | – | – |
| CNC(=O)NC(=O)NC(C(=O)NC1C(=O)N2C(C(=O)O)=C(CSc3nnnn3C)CSC12)c1ccccc1 (stereo not drawn) [Test Compound J, 7-[α-(3-methylcarbamoyl-1-ureido)-α-phenylacetamido)-3-(1-methyl-1H-tetrazole-5-ylthiomethyl)-3-cephem-4-carboxylic acid] | 10 µg/mL (≈ 17.8 µM) | 22.3 µg/mL (≈ 39.7 µM) | 4.3 µg/mL (≈ 7.66 µM) | 4 µg/mL (≈ 7.12 µM) | 4.3 µg/mL (≈ 7.66 µM) | 130 µg/mL (≈ 231 µM) | 7.5 µg/mL (≈ 13.4 µM) | > 20 µg/mL | 5 µg/mL (≈ 8.9 µM) | 2 µg/mL (≈ 3.56 µM) | 3 µg/mL (≈ 5.34 µM) | 0.7 mg/kg | 72 mg/kg | – |
| CNC(=O)NC(=O)NC(C(=O)NC1C(=O)N2C(C(=O)O)=C(CSc3nnc(C)s3)CSC12)c1ccc(O)cc1 (stereo not drawn) [Test Compound L, Sodium 7-[α-(3-methylcarbamoyl-1-ureido)-α-(4-hydroxyphenyl)acetamido]-3-(5-methyl-1,3,4-thiadiazole-2-ylthiomethyl)3-cephem-4-carboxylate] | 16 µg/mL | 19.5 µg/mL | 6.5 µg/mL | 5.5 µg/mL | 15.5 µg/mL | > 200 µg/mL | 7.5 µg/mL | > 20 µg/mL | 0.6 µg/mL | 6.5 µg/mL | 7.5 µg/mL | – | – | – |
| CNC(=O)NC(=O)NC(C(=O)NC1C(=O)N2C(C(=O)O)=C(CSc3nnnn3C)CSC12)c1cccs1 (stereo not drawn) [Test Compound I, 7-[α-(3-methylcarbamoyl-1-ureido)-α-(2-thienyl)-acetamido]-3-(1-methyl-1H-tetrazole-5-ylthiomethyl)-3-cephem-4-carboxylic acid] | 6.8 µg/mL (≈ 12 µM) | 16 µg/mL (≈ 28.2 µM) | 4.5 µg/mL (≈ 7.93 µM) | 3 µg/mL (≈ 5.29 µM) | 4.3 µg/mL (≈ 7.58 µM) | 35 µg/mL (≈ 61.7 µM) | 5.5 µg/mL (≈ 9.69 µM) | 13 µg/mL (≈ 22.9 µM) | 0.6 µg/mL (≈ 1.06 µM) | 0.6 µg/mL (≈ 1.06 µM) | 0.7 µg/mL (≈ 1.23 µM) | < 7.2 mg/kg | < 72 mg/kg | – |
| Cn1nnnc1SCC1=C(C(=O)O)N2C(=O)C(NC(=O)C(NC(=O)N3CCNC3=O)c3ccccc3)[C@H]2SC1 (stereo partly drawn) [Test Compound D, 7-[α-(imidazolidine-2-one-1-ylcarbonylamino)-α-phenylacetamido]-3-(1-methyl-1H-tetrazole-5-ylthiomethyl)-3-cephem-4-carboxylic acid] | 7 µg/mL (≈ 12.2 µM) | 90 µg/mL (≈ 157 µM) | 6 µg/mL (≈ 10.5 µM) | 7 µg/mL (≈ 12.2 µM) | 12 µg/mL (≈ 20.9 µM) | 70 µg/mL (≈ 122 µM) | 12 µg/mL (≈ 20.9 µM) | > 20 µg/mL | 0.9 µg/mL (≈ 1.57 µM) | 6 µg/mL (≈ 10.5 µM) | 7 µg/mL (≈ 12.2 µM) | – | – | 2 µg/mL (≈ 3.49 µM) |
| Cn1nnnc1SCC1=C(C(=O)O)N2C(=O)C(NC(=O)C(NC(=O)NC(=O)Nc3ccccc3)c3ccccc3)C2SC1 (stereo not drawn) [Test Compound M, 7-[α-(3-phenylcarbamoyl-1-ureido)-α-phenylacetamido]-3-(1-methyl-1H-tetrazole-5-ylthiomethyl)-3-cephem-4-carboxylic acid] | 0.6 µg/mL (≈ 0.962 µM) | 19.5 µg/mL (≈ 31.3 µM) | 7.8 µg/mL (≈ 12.5 µM) | 4 µg/mL (≈ 6.41 µM) | 15.5 µg/mL (≈ 24.9 µM) | 24 µg/mL (≈ 38.5 µM) | 10 µg/mL (≈ 16 µM) | 10 µg/mL (≈ 16 µM) | 0.5 µg/mL (≈ 0.802 µM) | 0.6 µg/mL (≈ 0.962 µM) | 0.5 µg/mL (≈ 0.802 µM) | – | – | – |
| CNC(=O)NC(=O)NC(C(=O)NC1C(=O)N2C(C(=O)O)=C(CSc3nnc(C)s3)CSC12)c1ccc(O)cc1 (stereo not drawn) [Example 14, 7-[α-(3-methylcarbamoyl-1-ureido)-α-(4-hydroxyphenyl)acetamido]-3-(5-methyl-1,3,4-thiadiazole-2-ylthiomethyl)-3-cephem-4-carboxylic acid] | – | – | – | – | – | – | – | – | – | – | – | 0.7 mg/kg | < 72 mg/kg | – |
| CC(=O)OCC1=C(C(=O)O)N2C(=O)C(NC(=O)C(NC(=O)N3CCNC3=O)c3ccccc3)[C@H]2SC1 (stereo partly drawn) [Test Compound E, 7-[α-(imidazolidine-2-one-1-ylcarbonylamino)-α-phenylacetamido]-3-acetoxymethyl-3-cephem-4-carboxylic acid] | 12 µg/mL (≈ 23.2 µM) | 24 µg/mL (≈ 46.4 µM) | 11 µg/mL (≈ 21.3 µM) | 10 µg/mL (≈ 19.3 µM) | 10 µg/mL (≈ 19.3 µM) | 42 µg/mL (≈ 81.2 µM) | 18 µg/mL (≈ 34.8 µM) | > 20 µg/mL | 0.4 µg/mL (≈ 0.773 µM) | 2 µg/mL (≈ 3.86 µM) | 5 µg/mL (≈ 9.66 µM) | – | – | 0.5 µg/mL (≈ 0.966 µM) |
